Results reported in patent US9926354B2, “Amyloid precursor protein (APP) based Ã#-secretase inhibitor peptides, and methods of use” (UNIVERSITY OF SOUTH FLORIDA, priority 2014, dated 2018).

Tests used:
[1] = test system: CHO cells over-expressing human Swedish mutant APP (CHO/APPswe); assay: Aβ and sAPPα production in cultured media of CHO/APPswe cells by ELISA; format: cell-based, Chinese hamster; conditions: 20 μg/mL, 24 hours
Description: (§1) Cell Culture—Chinese hamster ovary (CHO) cells engineered to express wild-type human APP (CHO/APPwt cells) or Swedish mutant human APP (CHO/APPswe cells) were kindly provided by Dr. Stefanie Hahn and Dr. Sascha Weggen (University of Heinrich Heine, Dusseldorf, Germany). As described previously (Obregon et al., 2012), these cells were cultured in Dulbecco's modified Eagle's medium (DMEM) with 10% fetal bovine serum (FBS), 1 mM sodium pyruvate, and 100 units/mL of penicillin and streptomycin.
(§2) To confirm the binding of APPsweBBP with BACE1, CHO/APPwt cells were plated in 8-well chambers (5×10^5/well), incubated with TAT-APPsweBBP-biotin or APPsweBBP-biotin at 20 μM for 30 minutes, fixed with 4% paraformaldehyde for 20 minutes, washed and permeabilized with 0.5% Triton X-100. Following application of blocking buffer, these cells were stained with mouse anti-BACE1 and rabbit anti-biotin antibodies overnight at 4° C. for immunocytochemistry analysis. In order to determine the inhibitory effects of TAT-APPsweBBP on BACE1-mediated APP β-cleavage and subsequent Aβ production, both CHO/APPwt and CHO/APPswe cells were plated in 24 well-plates (3×10^5/well) and treated with TAT-APPsweBBP at 0-20 μM for 24 hours. The cultured media were collected for Aβ analysis by enzyme-linked immunosorbent assay (ELISA) and sAPPα analysis by ELISA and Western blot (WB). Cell lysates were also prepared for analysis of APP amyloidogenic processing by WB.
(§3) ELISA—Mouse brains were homogenized in ice-cold lysis buffer for 30 seconds using a Minilys tissue homogenizer (Bertin Technologies, Montigny-le-Bretonneux, France) set at high speed, allowed to stand for 15 minutes at 4° C., and centrifuged at 15,000 rpm for 30 minutes. Soluble Aβ1-40/42 species and sAPPα were directly detected in cultured cell media or brain homogenates using the Aβ1-40/42 (Invitrogen) and sAPPα ELISA kits (IBL-America, Minneapolis, Minn., USA).
(§4) To further examine the ability of the Swedish mutant APP BACE1 binding peptide/Tat fusion peptides to decrease Aβ production, CHO cells overexpressing either human wild-type APP (CHO/APPwt cells) or Swedish mutant APP (hereinafter referred to as “CHO/APPswe cells”) are treated with a variety of APP-based BACE1 inhibitor peptides, as shown in Table 1 and Table 2. Aβ production is determined using ELISA.

[2] = test system: CHO cells over-expressing human wild-type APP (CHO/APPwt); assay: Aβ and sAPPα production in cultured media of CHO/APPwt cells by ELISA (24 hours); format: cell-based, Chinese hamster; conditions: 20 μg/mL
Description: as §1
as §2, with “In order to determine the inhibitory effects of TAT-APPsweBBP on BACE1-mediated APP β-cleavage and subsequent Aβ production, both CHO/APPwt and CHO/APPswe cells were plated in 24 well-plates (3×10^5/well) and treated with TAT-APPsweBBP at 0-20 μM for 24 hours.” left out
as §3, §4

[3] = test system: CHO/APPwt cells; assay: Aβ production in CHO/APPwt cells by ELISA (Example 1, 4 hours); format: cell-based, Chinese hamster; conditions: 20 μg/mL
Description: To examine the effects of various Swedish Tat fusion peptides on Aβ production, human wild-type amyloid precursor protein (APP) is overexpressed in Chinese hamster ovary cells (hereinafter referred to as CHO/APPwt cells), and the cells are treated with either PBS control (Phosphate buffered saline); Swedish peptide-1 (SwePep-1), […] (also referred herein as “APPsweBBP1”) (SEQ ID NO: 5); Swedish peptide-2 (SwePep-2) (also referred herein as “APPsweBBP”), […] (SEQ ID NO: 1); Swedish Tat fusion peptide-1 (SweTatPep-1), […] (also referred herein as “APPsweBBP/TTD1”) (SEQ ID NO: 6); or Swedish Tat fusion peptide-2 (SweTatPep-2) (also referred herein as “APPsweBBP/TTD2” and “TAT-APPsweBBP”), […] (SEQ ID NO: 3). APPsweBBP is a truncated fragment of APPswe spanning 12 amino acid residues (Glu665-Arg676). TAT, an 11-amino acid-residue protein-transduction domain derived from the HIV-1 transactivator of transcription protein, was conjugated at the C-terminus of APPsweBBP and biotin was conjugated at the N-terminus.
Following treatment, Aβ production is determined utilizing ELISA and the results illustrated in FIG. 1A. SweTatPep-2, SwePep-2, SwePep-1 and SweTatPep-1 each reduce Aβ40,42 by 63-65%, 30-33%, 31-34% and 37-38%, respectively.

[4] = target: BACE1 (Homo sapiens, UniProt P56817); assay: BACE1 activity assay (FRET, cell-free); format: biochemical; parameters: purchased Pan Vera Co., Madison, Wis., USA; conditions: peptide final concentration 20 μM, 90 minutes, room temperature
BACE1, sequence (P56817 46-501): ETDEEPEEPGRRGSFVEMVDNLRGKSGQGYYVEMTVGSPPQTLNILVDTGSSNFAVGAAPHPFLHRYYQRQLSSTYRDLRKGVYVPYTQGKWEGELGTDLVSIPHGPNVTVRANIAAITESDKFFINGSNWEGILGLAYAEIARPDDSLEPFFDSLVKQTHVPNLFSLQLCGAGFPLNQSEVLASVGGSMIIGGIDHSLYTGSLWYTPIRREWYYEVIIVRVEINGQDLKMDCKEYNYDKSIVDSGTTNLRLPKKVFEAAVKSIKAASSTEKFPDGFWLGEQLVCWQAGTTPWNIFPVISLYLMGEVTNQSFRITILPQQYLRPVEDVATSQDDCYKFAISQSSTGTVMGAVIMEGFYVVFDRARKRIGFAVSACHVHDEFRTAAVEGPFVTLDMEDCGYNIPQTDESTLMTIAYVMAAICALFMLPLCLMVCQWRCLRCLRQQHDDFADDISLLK
Description: BACE1 Activity Assay—The BACE1 inhibiting activity of APP-based BACE1 site binding peptides were determined using a fluorescence resonance energy transfer (FRET) assay (Pan Vera Co., Madison, Wis., USA), which employs a recombinant baculovirus-expressed BACE1 and a specific substrate (Rh-[…]-quencher) that is based on the APPswe mutation. This specific peptide substrate becomes highly fluorescent upon enzymatic cleavage. A mixture of 10 μL of BACE1 (1.0 U/mL in 50 mM Tris, pH7.5, 10% glycerol), 10 μL of FRET-substrate, and 10 μL of the various APP-based BACE1 site binding peptides (final concentration 20 μM) were incubated for 90 minutes in the dark at room temperature. Then, 10 μL of BACE1 stop buffer (2.5 M sodium acetate) was added to the mixture. Fluorescence was read using a fluorometer, with excitation at 545 nm and emission at 585 nm.
As a required enzyme for the generation of neurotoxic Aβ from APP, BACE1 is well established as an important mediator of AD β-amyloid pathology. As such, it has become an important target for new disease modifying therapeutics. However, since BACE1 also has important physiological roles, abolishment of the enzyme or its activity may lead to deleterious side effects as evidenced by numerous failed clinical trials discussed previously. […] Since previous studies have established a close relationship between α-helix structure and peptide-protein (or protein-protein) interactions (Azzarito, 2013; Rao et al., 2013), several APP based peptides were synthesized that might serve as a preferable substrate for BACE1. Importantly, these peptides were free of the Aβ-containing segment and, thus, cannot be amyloidogenic. In theory, these could be used to “hijack” the BACE1 processing of endogenous APP and lead to a decrease in cerebral Aβ. These BACE1 substrates and controls were incubated with recombinant BACE1 and percent of inhibition of the enzyme was calculated. […] These findings indicate that the α-helical TAT fusion domain may help to promote selective APPsweBBP proteolysis by BACE1, yielding substrate competition against human wild-type APP.

Row | Sequence | Secreted Aβ40 (ng/mg; mean ± SD) [1] [ng/mg] | Secreted Aβ42 (ng/mg; mean ± SD) [1] [ng/mg] | Secreted sAPPα (ng/mg; mean ± SD) [1] [ng/mg] | Secreted Aβ40 (ng/mg; mean ± SD) [2] [ng/mg] | Secreted Aβ42 (ng/mg; mean ± SD) [2] [ng/mg] | Secreted sAPPα (ng/mg; mean ± SD) [2] [ng/mg] | reduction of Aβ40,42 [3] | % of inhibition (mean ± SD) of BACE1 [4] [%]
1 | YGRKKRRQRRRIKTEEISEVKMDAEFR (human-virus fusion) [APPwtBBP/TTD1] | 64.21 ± 12.12 | 7.82 ± 0.67 | 229.45 ± 12.73 | 9.32 ± 0.68 | 1.01 ± 0.052 | 4688.12 ± 109.65 | – | –
2 | IKTEEISEVKMDAEFR (listed as Homo sapiens) [APPwtBBP1] | 62.43 ± 9.43 | 8.91 ± 0.83 | 217.35 ± 17.32 | 11.23 ± 0.89 | 1.23 ± 0.043 | 4874.42 ± 174.56 | – | –
3 | IKTEEISEVNLDAEFR (listed as Homo sapiens) [APPsweBBP1] | 57.23 ± 11.65 | 9.01 ± 1.07 | 211.43 ± 18.31 | 9.67 ± 0.84 | 1.07 ± 0.054 | 4711.83 ± 201.45 | 31-34% | –
4 | EVNLDAEFR (listed as Homo sapiens) [APPsweBBP3] | – | 7.12 ± 0.84 | 231.26 ± 14.28 | 10.23 ± 0.73 | 0.92 ± 0.041 | 4709.43 ± 123.74 | – | 14.32 ± 0.04
5 | EISEVKMDAEFR (listed as Homo sapiens) [APPwtBBP] | 59.84 ± 11.23 | 9.78 ± 1.07 | 201.65 ± 11.54 | 10.89 ± 0.76 | 1.18 ± 0.051 | 4762.21 ± 164.89 | – | 16.23
6 | YGRKKRRQRRREVNLDAEFR (human-virus fusion) [APPsweBBP/TTD3] | 41.87 ± 5.76 | 8.43 ± 0.95 | 211.37 ± 18.93 | 8.74 ± 0.55 | 0.93 ± 0.048 | 5001.45 ± 271.34 | – | –
7 | YGRKKRRQRRREVKMDAEFR (human-virus fusion) [APPwtBBP/TTD3] | 57.45 ± 13.11 | 9.56 ± 1.11 | 201.23 ± 21.23 | 10.12 ± 1.11 | – | 4699.15 ± 155.92 | – | –
8 | YGRKKRRQRRRIKTEEISEVNLDAEFR (human-virus fusion) [APPsweBBP/TTD1] | – | 7.98 ± 0.81 | 236.32 ± 13.09 | 8.93 ± 0.82 | 0.95 ± 0.037 | 4901.54 ± 211.54 | 37-38% | –
9 | EVKMDAEFR (listed as Homo sapiens) [APPwtBBP3] | 61.36 ± 8.34 | 10.93 ± 1.98 | 199.83 ± 14.65 | 11.43 ± 1.01 | 1.09 ± 0.061 | 4699.78 ± 178.43 | – | 4.89 ± 0.06
10 | YGRKKRRQRRREISEVKMDAEFR (human-virus fusion) [APPwtBBP/TTD2] | 40.32 ± 8.43 | 6.78 ± 0.92 | 267.92 ± 15.88 | 6.53 ± 0.81 | 0.68 ± 0.034 | 5291.14 ± 142.75 | – | 21.01 ± 1.42
